One assay addresses INS (Homo sapiens, UniProt P01308). The note with it: ultraviolet spectrometry; derived from previous study; read-out: Binding Constants, INS; cited from earlier work. An excerpt:
Table 1 Summary of ultraviolet spectrometry experiments concerning binding of T cell receptor sequences expanded in type 1 diabetic patients (TCR DIA) to a COX peptide (Cox Pep) that mimics the INS receptor (Ins Rec), two Clostridium peptides (Clost Pep) that mimic INS, two INS receptor peptides identified by their amino acid sequence numbers, and INS itself. Gluc = glucagon-like sequence; GR = gl | column: INS

Assay [1] deals with Cox Pep #1 (COX peptide that mimics the INS receptor). Kind of assay: Ultraviolet spectrometry peptide binding. The settings on record: estimated from inflection points of the curves, read-out: Binding Constants, Cox Pep #1. An excerpt: (§1) Because some COX antigens mimic INSR sequences and some Clostridia antigens mimic INS, we synthesized several microbial peptide sequences that mimicked these human proteins and used ultraviolet spectroscopy to determine whether they bound to each other, as would be the case if they were complementary antigens. Figure 12 provides the peptide sequences and their similarities to either INS or INSR. Clostridium similarities to the INS A chain were specifically chosen because the role of the A chain in the induction of T1DM is generally ignored in favor of the B chain.
(§2) Previous investigators have sequenced the T cell receptor (TCR) sequences that are expanded in T1DM patients with particular specificities for INS or INSR [61, 62]. […] TCR 1, 2, and 4 were from one patient; TCR 8, 9, and 10 were from a second patient; and TCR K2.4, K2.12, and K2.16 were from a third. Ultraviolet light spectrometry was used to determine whether each TCR sequence recognized the COX and Clostridia peptides used in the previous set of experiments (Figure 12). The results are shown in Table 1, Figure 13, and Appendix F.

The next assay addresses Clost Pep #2. Put plainly: Ultraviolet spectrometry peptide binding. Details: species or system Clostridium. The settings on record: estimated from inflection points of the curves, read-out: Binding Constants, Clost Pep #2.
From the text: as §1, §2

For a further assay, the target named is Clost Pep #3. Kind of assay: Ultraviolet spectrometry peptide binding. The settings on record: estimated from inflection points of the curves, read-out: Binding Constants, Clost Pep #3. Details: species or system Clostridium.
From the text: as §1, §2

The target in a further assay is Ins Rec 105–118. The settings on record: ultraviolet spectrometry; derived from previous study; read-out: Binding Constants, Ins Rec 105–118; cited from earlier work. An excerpt:
Table 1 Summary of ultraviolet spectrometry experiments concerning binding of T cell receptor sequences expanded in type 1 diabetic patients (TCR DIA) to a COX peptide (Cox Pep) that mimics the INS receptor (Ins Rec), two Clostridium peptides (Clost Pep) that mimic INS, two INS receptor peptides identified by their amino acid sequence numbers, and INS itself. Gluc = glucagon-like sequence; GR = gl | column: Ins Rec 105–118

The target of the next assay is Ins Rec 897–915. The note with it: ultraviolet spectrometry; derived from previous study; read-out: Binding Constants, Ins Rec 897–915; cited from earlier work. An excerpt: Table 1 Summary of ultraviolet spectrometry experiments concerning binding of T cell receptor sequences expanded in type 1 diabetic patients (TCR DIA) to a COX peptide (Cox Pep) that mimics the INS receptor (Ins Rec), two Clostridium peptides (Clost Pep) that mimic INS, two INS receptor peptides identified by their amino acid sequence numbers, and INS itself. Gluc = glucagon-like sequence; GR = gl | column: Ins Rec 897–915

Bounds are passed on as bounds.

INS, sequence (P01308 25-54): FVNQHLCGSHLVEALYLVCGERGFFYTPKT
INS, sequence (P01308 90-110): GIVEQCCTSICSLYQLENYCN

`CC[C@H](C)[C@H](NC(=O)[C@@H](NC(=O)[C@H](C)NC(=O)[C@H](CC(C)C)NC(=O)[C@H](CO)NC(=O)[C@H](CO)NC(=O)[C@H](C)NC(=O)[C@@H](N)CS)C(C)C)C(=O)N[C@@H](CCCNC(=N)N)C(=O)N[C@H](C(=O)O)[C@@H](C)O` (single isomer, unassigned) [TCR DIA 2, K2.16]: on INS, the Kd is more than 1000 µM.
Turning to `CC(C)C[C@H](NC(=O)[C@H](C)NC(=O)[C@H](CO)NC(=O)[C@@H](N)CC(=O)O)C(=O)N[C@@H](Cc1ccc(O)cc1)C(=O)N[C@@H](CC(C)C)C(=O)N[C@@H](CS)C(=O)N[C@@H](C)C(=O)N[C@@H](CO)C(=O)N[C@@H](CO)C(=O)N[C@@H](CC(C)C)C(=O)NCC(=O)O` (single isomer, unassigned) [TCR DIA 4,8,9], the Kd at INS is more than 1000 µM.
As to CASSIYLCSVEATRAD [TCR DIA 1], the Kd in assay [1] was 400 µM; on Clost Pep #2 it was 100 µM; on Clost Pep #3, 100 µM; at Ins Rec 105–118, 125 µM; at Ins Rec 897–915 it was 300 µM; with INS, 80 µM.

(Values after article PMC10179352, “Clostridia and Enteroviruses as Synergistic Triggers of Type 1 Diabetes Mellitus” (International Journal of Molecular Sciences, 2023).)
